Molecular target: T1, PI3Kα E545K (Homo sapiens, UniProt P42336, E545K)
Assay: PI3Kα E545K mutant in vitro cell based assay, MCF-7 cells
Conditions: MCF-7 cell line, 0% FBS, 3 hours treatment
Text: PI3K-Alpha Kinase (PI3Kα) Activity: Wild-Type PI3Kα, H1047R Mutant PI3Kα, and E545K Mutant PI3Kα In Vitro Cell Based Assays and Determination of IC50 Values for Inhibitors
The MDA-MB-453 (ATCC-HTB-131) cell line (PI3Kα H1047R) and MCF-7 (ATCC-HTB-22) cell line (PI3Kα E545K), MDA-MB-361 (ATCC-HTB-27) cell line (PI3Kα E545K), and SKBR3 (ATCC-HTB-30) cell line (wild type PI3Kα) were obtained from the American Type Culture Collection (Manassas, VA). MDA-MB-453 cells were maintained in Dulbecco's Modified Eagle Media (DMEM, Gibco 12430) supplemented with 10% Fetal Bovine Serum, heat inactivated (FBS HI, Gibco 10082), 1× non-essential amino acids (NEAA, Gibco 11140), 1 mM sodium pyruvate (Gibco 11360) and 1× Anti-Anti (Gibco 15240). MCF-7 cells were maintained in Minimum Essential Media (MEM) (Gibco 11095) supplemented with 10% Fetal Bovine Serum, heat inactivated (FBS HI, Gibco 10082), 1× non-essential amino acids (NEAA, Gibco 11140), 1 mM sodium pyruvate (Gibco 11360), 1× Anti-Anti (Gibco 15240) and 10 μg/mL human insulin (Sigma I 9278). MDA-MB-361 cells were maintained in Dulbecco's Modified Eagle Media (DMEM, Gibco 12430) supplemented with 20% Fetal Bovine Serum, heat inactivated (FBS HI, Gibco 10082), 1× non-essential amino acids (NEAA, Gibco 11140), 1 mM sodium pyruvate (Gibco 11360) and 1× Anti-Anti (Gibco 15240). SKBR3 cells were maintained in McCoy's 5A (Gibco 16600) supplemented with 10% Fetal Bovine Serum, heat inactivated (FBS HI, Gibco 10082), and 1× Anti-Anti (Gibco 15240). Cultures were maintained in a humidified incubator at 37° C. under 5% CO2/95% air.
For compound testing in 0% FBS, MDA-MB-453, MCF-7 and SKBR3 cells were seeded at a density of 1.5×10^4, 1.0×10^4, and 1.0×10^4 cells, respectively, per well in white 384-well plates in 20 μl of Minimum Essential Media (MEM) assay media with 1×NEAA, 1 mM sodium pyruvate, and 1 μg/mL human insulin (Sigma 19278) (Assay Medium); while MDA-MB-361 cells were seeded at a density of 1.5×10^4 per well in white 384-well plates in 20 μl Assay Medium without insulin. After plating, cells were allowed to attach overnight. Compounds dissolved in 10 mM stock solutions in DMSO were serially diluted 1:3 in DMSO to generate a 10-point dilution series and plated using an acoustic liquid handler system (Echo 550 Series Liquid Handler, Labcyte). A 5× intermediate compound dilution plate in MEM with 1×NEAA and 1 mM sodium pyruvate (150 μM starting compound concentration in 1.5% DMSO) was then prepared. Five μl of the intermediate serially diluted compounds were added to the cell plate to final concentrations ranging from […] in 0.3% DMSO. 0.3% DMSO alone was used to establish the maximum (MAX) signal and GDC-0032 at a final concentration of 1 μM was used as a reference compound for the minimum (MIN) signal. After 3 hours treatment, the medium was removed, and the cells were lysed in 10 μL of 1× SureFire Lysis buffer with shaking for 10 minutes at room temperature. The Acceptor Mix (Reaction Buffer 1+Reaction Buffer 2+Activation Buffer+SureFire Ultra Acceptor Beads) was prepared by diluting Activation buffer 25-fold in combined Reaction Buffer 1 and Reaction Buffer 2.
The Acceptor beads were diluted 50-fold in the combined Reaction Buffers. Five μL of Acceptor Mix was added to each well, the plate was sealed and covered with foil and incubated for 1 hour at room temperature. The Donor Mix (dilution buffer+SureFire Ultra Donor Beads) was prepared by diluting Donor Beads 50-fold in dilution buffer. Five μL of the Donor Mix was added to each well and the plate sealed and covered with foil and incubated for 1-2 hours at room temperature in the dark. The plates were read on a Neo2 plate reader instrument from Biotek using standard AlphaLisa settings.
Compounds were tested in duplicate and the % inhibition at each compound concentration was used to generate two dose response curves. One IC50 was generated using average % inhibition at each compound concentration. […]

T1 sequence (P42336 whole entry E545K): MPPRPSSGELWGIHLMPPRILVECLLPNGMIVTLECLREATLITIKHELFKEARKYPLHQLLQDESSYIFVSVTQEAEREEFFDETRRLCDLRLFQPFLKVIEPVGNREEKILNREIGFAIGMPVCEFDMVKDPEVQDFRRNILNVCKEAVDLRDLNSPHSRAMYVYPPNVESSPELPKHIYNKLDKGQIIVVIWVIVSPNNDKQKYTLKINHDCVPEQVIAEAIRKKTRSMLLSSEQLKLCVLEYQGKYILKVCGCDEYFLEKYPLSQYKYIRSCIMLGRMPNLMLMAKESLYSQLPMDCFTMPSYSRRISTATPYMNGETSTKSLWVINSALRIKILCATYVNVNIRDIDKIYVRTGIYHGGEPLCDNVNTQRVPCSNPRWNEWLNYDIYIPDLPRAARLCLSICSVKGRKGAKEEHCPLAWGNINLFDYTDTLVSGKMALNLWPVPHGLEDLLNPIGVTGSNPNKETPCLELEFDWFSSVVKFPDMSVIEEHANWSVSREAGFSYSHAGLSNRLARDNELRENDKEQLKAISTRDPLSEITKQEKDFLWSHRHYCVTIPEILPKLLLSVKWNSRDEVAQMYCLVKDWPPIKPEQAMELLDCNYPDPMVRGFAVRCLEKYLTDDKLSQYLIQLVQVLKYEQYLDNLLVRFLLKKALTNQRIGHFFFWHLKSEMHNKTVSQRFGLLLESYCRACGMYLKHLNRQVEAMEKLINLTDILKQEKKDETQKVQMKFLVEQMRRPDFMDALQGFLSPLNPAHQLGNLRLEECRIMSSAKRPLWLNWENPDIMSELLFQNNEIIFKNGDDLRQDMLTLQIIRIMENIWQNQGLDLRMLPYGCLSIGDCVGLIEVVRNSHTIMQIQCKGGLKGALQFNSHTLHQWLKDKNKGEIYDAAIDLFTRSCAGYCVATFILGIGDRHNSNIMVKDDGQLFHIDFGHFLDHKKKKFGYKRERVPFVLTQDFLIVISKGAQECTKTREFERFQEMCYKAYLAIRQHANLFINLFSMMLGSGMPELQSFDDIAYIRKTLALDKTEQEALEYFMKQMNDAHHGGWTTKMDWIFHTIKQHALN
T1 sequence (P27986 whole entry partner): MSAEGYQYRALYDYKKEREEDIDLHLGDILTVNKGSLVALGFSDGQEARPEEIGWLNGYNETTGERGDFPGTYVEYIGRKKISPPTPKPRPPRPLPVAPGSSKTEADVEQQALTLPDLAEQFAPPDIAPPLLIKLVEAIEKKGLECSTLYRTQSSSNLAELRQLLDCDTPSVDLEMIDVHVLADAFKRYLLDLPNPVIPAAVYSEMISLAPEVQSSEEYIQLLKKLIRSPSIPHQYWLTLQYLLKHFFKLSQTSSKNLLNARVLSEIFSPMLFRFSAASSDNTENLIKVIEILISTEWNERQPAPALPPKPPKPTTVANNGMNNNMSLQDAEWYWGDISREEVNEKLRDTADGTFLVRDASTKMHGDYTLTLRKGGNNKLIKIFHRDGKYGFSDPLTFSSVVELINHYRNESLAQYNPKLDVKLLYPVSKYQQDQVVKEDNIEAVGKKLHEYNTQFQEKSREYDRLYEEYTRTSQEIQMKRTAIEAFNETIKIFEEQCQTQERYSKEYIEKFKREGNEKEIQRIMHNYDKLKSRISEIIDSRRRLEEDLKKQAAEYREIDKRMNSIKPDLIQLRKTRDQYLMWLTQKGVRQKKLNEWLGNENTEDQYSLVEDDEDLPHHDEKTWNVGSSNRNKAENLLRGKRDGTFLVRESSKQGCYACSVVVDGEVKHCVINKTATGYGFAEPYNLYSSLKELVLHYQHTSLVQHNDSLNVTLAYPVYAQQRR

IC50, < 500 nM:
Cc1cc([C@@H](C)Oc2ccc(Cl)nc2C(N)=O)c2oc(-c3ccccn3)c(C)c(=O)c2c1 [Example 19A, 6-Chloro-3-[(1R)-1-[3,6-dimethyl-4-oxo-2-(2-pyridyl)chromen-8-yl]ethoxy]pyridine-2-carboxamide]
Cc1cc([C@@H](C)Oc2ccc(Cl)nc2C(N)=O)c2oc(-c3ccc4c(c3)ncn4C)c(C)c(=O)c2c1 [Example 69A, 6-Chloro-3-[(1R)-1-[3,6-dimethyl-2-(1-methylbenzimidazol-5-yl)-4-oxo-chromen-8-yl]ethoxy]pyridine-2-carboxamide]
CONS(=O)(=O)c1nc(F)ccc1O[C@H](C)c1cc(C)cc2c(=O)c(C)c(-c3cnn(CC(C)(C)O)c3)oc12 [Example 136C, 6-Fluoro-3-[(1R)-1-[2-[1-(2-hydroxy-2-methyl-propyl)pyrazol-4-yl]-3,6-dimethyl-4-oxo-chromen-8-yl]ethoxy]-N-methoxy-pyridine-2-sulfonamide]
Cc1cc([C@@H](C)Oc2ccc(Cl)nc2C(N)=O)c2oc(-c3cnc4scnc4c3)c(C)c(=O)c2c1 [Example 126A, 6-Chloro-3-[(1R)-1-(3,6-dimethyl-4-oxo-2-thiazolo[5,4-b]pyridin-6-yl-chromen-8-yl)ethoxy]pyridine-2-carboxamide]
Cc1cc([C@@H](C)Oc2ccc(Cl)nc2C(N)=O)c2oc(-c3ccc4c(c3)CCN(C)C4)c(C)c(=O)c2c1 [Example 71A, 6-Chloro-3-[(1R)-1-[3,6-dimethyl-2-(2-methyl-3,4-dihydro-1H-isoquinolin-6-yl)-4-oxo-chromen-8-yl]ethoxy]pyridine-2-carboxamide]
Cc1cc([C@@H](C)Oc2ccc(Cl)nc2C(N)=O)c2oc(-c3ccc4c(c3)CN(C)C4=O)c(C)c(=O)c2c1 [Example 14B, 6-Chloro-3-[(1R)-1-[3,6-dimethyl-2-(2-methyl-1-oxo-isoindolin-5-yl)-4-oxo-chromen-8-yl]ethoxy]pyridine-2-carboxamide]
Cc1cc([C@@H](C)Oc2ccc(Cl)nc2S(N)(=O)=O)c2oc(C3COC3)c(C)c(=O)c2c1 [Example 114C, 6-Chloro-3-[(1R)-1-[3,6-dimethyl-2-(oxetan-3-yl)-4-oxo-chromen-8-yl]ethoxy]pyridine-2-sulfonamide]
COCCn1cc(-c2oc3c([C@@H](C)Oc4ccc(Cl)nc4S(N)(=O)=O)cc(C)cc3c(=O)c2C)cn1 [Example 117C, 6-Chloro-3-[(1R)-1-[2-[1-(2-methoxyethyl)pyrazol-4-yl]-3,6-dimethyl-4-oxo-chromen-8-yl]ethoxy]pyridine-2-sulfonamide]
Cc1cc([C@@H](C)Oc2ccc(Cl)nc2S(N)(=O)=O)c2oc(-c3cnoc3)c(C)c(=O)c2c1 [Example 12C, 6-Chloro-3-[(1R)-1-(2-isoxazol-4-yl-3,6-dimethyl-4-oxo-chromen-8-yl)ethoxy]pyridine-2-sulfonamide]
Cc1cc([C@@H](C)Oc2ccc(Cl)nc2C(N)=O)c2oc(-c3ccc4c(c3)OCCO4)c(C)c(=O)c2c1 [Example 65A, 6-Chloro-3-[(1R)-1-[2-(2,3-dihydro-1,4-benzodioxin-6-yl)-3,6-dimethyl-4-oxo-chromen-8-yl]ethoxy]pyridine-2-carboxamide]
Cc1cc([C@@H](C)Oc2ccc(Cl)nc2C(N)=O)c2oc(-c3ccc4c(c3)C(=O)N(C)C4)c(C)c(=O)c2c1 [Example 15B, 6-Chloro-3-[(1R)-1-[3,6-dimethyl-2-(2-methyl-3-oxo-isoindolin-5-yl)-4-oxo-chromen-8-yl]ethoxy]pyridine-2-carboxamide]
Cc1cc([C@@H](C)Oc2ccc(Cl)nc2S(N)(=O)=O)c2oc(-c3ccc4nc(C)cn4c3)c(C)c(=O)c2c1 [Example 120C, 6-Chloro-3-[(1R)-1-[3,6-dimethyl-2-(2-methylimidazo[1,2-a]pyridin-6-yl)-4-oxo-chromen-8-yl]ethoxy]pyridine-2-sulfonamide]
Cc1cc([C@@H](C)Oc2cccnc2C(=O)NOCC2CC2)c2oc(-c3ccc4nn(C)cc4c3)c(C)c(=O)c2c1 [Example 25A, N-(Cyclopropylmethoxy)-3-[(1R)-1-[3,6-dimethyl-2-(2-methylindazol-5-yl)-4-oxo-chromen-8-yl]ethoxy]pyridine-2-carboxamide]
Cc1cc([C@@H](C)Oc2ccc(Cl)nc2C(N)=O)c2oc(-c3ccc4nc(CCO)sc4c3)c(C)c(=O)c2c1 [Example 132C, 6-Chloro-3-[(1R)-1-[2-[2-(2-hydroxyethyl)-1,3-benzothiazol-6-yl]-3,6-dimethyl-4-oxo-chromen-8-yl]ethoxy]pyridine-2-carboxamide]
Cc1cc([C@@H](C)Oc2ccc(Cl)nc2C(N)=O)c2oc(-c3cnn(C)c3)c(C)c(=O)c2c1 [Example 22A, 6-Chloro-3-[(1R)-1-[3,6-dimethyl-2-(1-methylpyrazol-4-yl)-4-oxo-chromen-8-yl]ethoxy]pyridine-2-carboxamide]
Cc1cc([C@@H](C)Oc2ccc(Cl)nc2C(N)=O)c2oc(-c3ccc4nsnc4c3)c(C)c(=O)c2c1 [Example 140A, 3-[(1R)-1-[2-(2,1,3-Benzothiadiazol-5-yl)-3,6-dimethyl-4-oxo-chromen-8-yl]ethoxy]-6-chloro-pyridine-2-carboxamide]
Cc1cc([C@@H](C)Oc2ccc(Cl)nc2C(N)=O)c2oc(-c3ccc4nn(C)c(F)c4c3)c(C)c(=O)c2c1 [Example 48C, 6-Chloro-3-[(1R)-1-[2-(3-fluoro-2-methyl-indazol-5-yl)-3,6-dimethyl-4-oxo-chromen-8-yl]ethoxy]pyridine-2-carboxamide]
Cc1cc([C@@H](C)Oc2ccc(Cl)nc2C(N)=O)c2oc(-c3ccc4c(c3)CCNC4=O)c(C)c(=O)c2c1 [Example 116A, 6-Chloro-3-[(1R)-1-[3,6-dimethyl-4-oxo-2-(1-oxo-3,4-dihydro-2H-isoquinolin-6-yl)chromen-8-yl]ethoxy]pyridine-2-carboxamide]
Cc1cc([C@@H](C)Oc2ccc(Cl)nc2S(N)(=O)=O)c2oc(C3(CCO)CC3)c(C)c(=O)c2c1 [Example 127C, 6-Chloro-3-[(1R)-1-[2-[1-(2-hydroxyethyl)cyclopropyl]-3,6-dimethyl-4-oxo-chromen-8-yl]ethoxy]pyridine-2-sulfonamide]

Molecular target: T1, PI3Kα E545K
Assay: PI3Kα E545K mutant in vitro cell based assay, MDA-MB-361 cells
Parameters: MDA-MB-361 (ATCC-HTB-27) cell line (PI3Kα E545K); host or cells: MDA-MB-361
Conditions: MDA-MB-361 cell line, 0% FBS, no insulin, 3 hours treatment
Method in brief: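 Compound exposure lasted 3 hours, in duplicate 10-point 1:3 dilutions at 0.3% DMSO final, on overnight-attached MDA-MB-361 cells carrying PI3Kα E545K in insulin-free, 0% FBS MEM. Lysates read by SureFire AlphaLISA. Relative IC50 from 4-parameter logistic fit versus DMSO and 1 μM GDC-0032 controls.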

IC50, < 500 nM:
COCCn1cc(-c2oc3c([C@@H](C)Oc4ccc(Cl)nc4S(N)(=O)=O)cc(C)cc3c(=O)c2C)cn1 [Example 117C, 6-Chloro-3-[(1R)-1-[2-[1-(2-methoxyethyl)pyrazol-4-yl]-3,6-dimethyl-4-oxo-chromen-8-yl]ethoxy]pyridine-2-sulfonamide]
Cc1cc([C@@H](C)Oc2cccnc2C(=O)NOCC2CC2)c2oc(-c3ccc4nn(C)cc4c3)c(C)c(=O)c2c1 [Example 25A, N-(Cyclopropylmethoxy)-3-[(1R)-1-[3,6-dimethyl-2-(2-methylindazol-5-yl)-4-oxo-chromen-8-yl]ethoxy]pyridine-2-carboxamide]
Cc1cc([C@@H](C)Oc2ccc(Cl)nc2C(N)=O)c2oc(-c3ccc4nc(CCO)sc4c3)c(C)c(=O)c2c1 [Example 132C, 6-Chloro-3-[(1R)-1-[2-[2-(2-hydroxyethyl)-1,3-benzothiazol-6-yl]-3,6-dimethyl-4-oxo-chromen-8-yl]ethoxy]pyridine-2-carboxamide]

Reference: patent US20240182460A1, “ALLOSTERIC CHROMENONE INHIBITORS OF PHOSPHOINOSITIDE 3-KINASE (PI3K) FOR THE TREATMENT OF DISEASE” (PETRA PHARMA CORPORATION, priority 2022, published 2024)
